Experimental findings from patent publication US12303468B2, “Compositions comprising one or more (bio)-alkanediols with antioxidants” (Symrise AG, priority 2020, dated 2025) are described below.

“And” between values parts separate entries of the source, which are not always exact repeats. Equal values may be shown once.

Data set [1] is described as follows: Oxipres test (induction period, product protection). It counts as physicochemical. The following applies: for antioxidative boosting (prolonged induction time, less rancidity and reduced acid value), in words: alkanediol in combination with antioxidant (tocopherol) in sunflower oil. The protocol: To evaluate the influence of 1,2-alkanediols or of 2,3-alkanediols on the antioxidative capacity of antioxidants, two different tests were performed: • (1) Oxipres treatment to simulate product protection; and • (2) Evaluation of reactive oxygen species (ROS) for skin protection.
The following tests were performed with sunflower oil +/− antioxidant and +/− alkanediols. […] Treating it with heat and oxygen triggers and accelerates oxidation easily.
An Oxipres test was performed in order to evaluate the antioxidative capacity of different test samples as described below.
Test procedure: For the evaluation of the antioxidative capacity of the above-described samples, an Oxipres test was conducted. The Oxipres method is bases on oxygen consumption at high temperatures and pressures and allows the determination of oxidative resistance (shelf life) of e.g. oils. The test runs under elevated pressure and temperature, where the process is accelerated. In the Oxipres test the sample is placed inside a hermetically closed iron vessel that is subjected to high oxygen pressures and temperatures of 90 to 120° C. […] The consumption of oxygen results in a pressure drop in the vessel during the test. Higher decrease of pressure indicates more consumption of oxygen and higher oxidation of the test product. Oils with a high degree of unsaturation are most susceptible to autoxidation.
In the test, the antioxidants are oxidized preferentially before the oxidizable fat or oil is oxidized. Thus, the antioxidants protect the fat or oil against oxidation. After this there is a sudden and large consumption of oxygen and the fat becomes rancid. This can be defined by the induction period (IP) in hours. A lower IP correlates with a faster oxidation.
Equipment: The tests were performed with an Oxipres device ex Mikrolab. The instrument is a modification of the bomb method (ASTM D941), which is based on oxidation with oxygen.

Data set [2] can be described thus: Solubility of alkanediols in water. It counts as physicochemical. The following applies: visual assessment at ambient temperature after 24 h storage at 5° C. An excerpt:
The water solubility of a substance is the saturation mass concentration of the substance in water at a given temperature. The determination of the solubility in water relates to essentially pure substances which are stable in water and not volatile. The determination of the water solubility of the alkanediols is further described in the following Example 7.
For the determination of the maximum water solubility of an alkanediol. water and different concentrations of the respective alkanediol were blended by stirring. […] The determination of whether the alkanediol has dissolved in water is based entirely on visual observation.

Data set [3] relates to IL-8 produced and secreted by HaCaT cells. Description: Interleukin 8 (IL-8) ELISA. Type of data set: cell-based, human. The settings on record: IL 1-alpha stimulated. Here is the method: Interleukin 8 (IL-8) is increased by various kinds of stress including UV and oxidant stress, which thereby cause the recruitment of inflammatory cells and induces further increase in oxidant stress mediators, making it a key parameter in localized inflammation.
An IL-8 ELISA (enzyme lined immunosorbance assay) was performed in order to determine IL-8 produced and secreted by cells from the cell supernatant utilizing antibodies detecting the IL-8.
Experimental procedure: HaCaT cells (spontaneously transformed aneuploid immortal keratinocyte cell line from adult human skin) were seeded in a black 96 well microplate with transparent bottom and incubated at 37° C. After 24 hours the supernatant is decanted and the test samples (100 μl/well) are added and incubated for 24 hours at 37° C. Then IL 1-alpha (1 ng/ml per 100 μl/well) was added as stimulant. Then the medium was changed (100 μl/well) and incubated at 37° C. After 4 h a 70 μl sample was recovered from the cell supernatant. Thereafter, an IL-8 ELISA is carried out with the cell supernatant sample.
The lower the IL-8 concentration the better the […] effect of the antioxidant of the sample.

Data set [4] has as its system reactive oxygen species (ROS) on ex vivo skin. The data set can be described thus: DCF assay on ex vivo skin biopsies, aqueous/alcoholic (ethanolic) test samples. It counts as cell-based. The settings on record: only the vehicle and the alkanediol, no antioxidant.
Method: A dichlorofluorescein test (DCF) assay was performed in order to determine the amount of reactive oxygen species (ROS) on ex vivo skin treated with different test samples in a lipophilic or an aqueous/alcoholic system as described below.
DCF assay—assay principle: Ex vivo skin was incubated with 2′,7′-dichlorodihydrofluorescein diacetate at 37° C., 5% CO2. After PBS washing, samples were exposed or not to cumene hydroperoxide. Immediately after exposure, ex vivo skin samples were frozen in liquid nitrogen and 5 μm cryostat sections were made and fixed with acetone to allow the visualisation of fluorescence generated by ROS in cells of the reconstructed skins. […] Green fluorescence was quantified in ex vivo skin using ImageJ software. The depth of immunostaining was measured as follows: green DCFH-DE positive cells were automatically detected using Histolab software and the distance between dermal epidermal junction and the deepest positive cells were measured in each condition. Means were compared using a student's test. […]
The image acquisition was performed by using Olympus BX51 microscope and Olympus DP70 camera. For each skin sample two skin sections have been taken and the related fluorescent images acquired and analyzed. Thus, for each test condition, 12 images have been acquired and analyzed (i.e. 12 data). The analysis of fluorescence has been performed within the dermis area. […]
In data set [5] the test system is reactive oxygen species (ROS) on monolayer cells. The data set can be described thus: DCF assay on monolayer cells (2D). It counts as cell-based. The following applies: 300 μM H2O2, Untreated = 100. The protocol:
A dichlorofluorescein test (DCF) assay was performed in order to determine the amount of reactive oxygen species (ROS) on monolayer cells with different test samples as described below.
DCF assay—assay principle (2D): One procedure to quantify intracellular radicals in a cell model is by using the dichlorofluorescein (DCF) assay. […] By intracellular esterases and oxidation, the nonfluorescent H2DCFDA is converted to the highly fluorescent 2′,7′-dichlorofluorescein (DCF). The nonfluorescent fluorescein (2′,7′-dichlorofluorescein diacetate (DCFH-DA)) passes the cell membranes. In the cytoplasm, it is cleaved by intracellular esterases and cannot leave the cell in this form. The oxidation by intracellularly existing ROS (reactive oxygen species) modifies the molecule so that will become DCF and emits fluorescence. ROS stimulation is done by exposure to 300 μM H2O2 for 1 h.
The determination of the anti-oxidative capacity is performed in 96-well microplates from Nunc (Wiesbaden, Germany) and with the microplate reader “Spark” from Tecan (Crailsheim, Germany). Cells are seeded in a black 96 well microplate with transparent bottom and incubated at 37° C. After 24 h the supernatant is decanted and fresh media with 0.1% FBS is added. Further 24 hours later the supernatant is decanted again and the test samples are added and incubated for 24 h. As a positive control Trolox is always co-tested. 300 μM H2O2 is used as ROS source (1 h exposure) The emitted fluorescence is measured from bottom of well at EX/EM 485/528 nm.
The antioxidative capacity is expressed as relative reduction of the stimulated control, which can be determined by rule of proportion in combination with the control.

Where [6] appears, read: in combination with Ascorbyl Palmitate in sunflower oil.
Where [7] appears, read: in combination with Hydroxyacetophenone in sunflower oil.

Turning to `CCCCCCCCC(O)CO` (stereo not shown) [1,2-decanediol], the “antioxidative boosting (prolonged induction time, less rancidity and reduced acid value), in words” value in data set [1] is recorded as “distinguished efficacy for antioxidative boosting”.

Consider `CCCCCC(O)CO` (stereo not shown) [1,2-heptanediol], for which, in data set [2], the “Maximum solubility in water” value is 2.5 % by weight. Also, the “IL-8 concentration” value in data set [3] (500 μM) was 959.8 pg/mL and 959.85 pg/mL. Further, the “antioxidative boosting (prolonged induction time, less rancidity and reduced acid value), in words” value in data set [1] is on record as “distinguished efficacy for antioxidative boosting”. Besides, the “induction period, in words” value in data set [1] (setting [6]) and in data set [1] (setting [7]) was “remarkably prolonged induction periods” throughout. Further, the “antioxidative efficacy, in words” value in data set [4] is “do not have an antioxidative efficacy”. Also, the “Mean, ROS concentration (%)” value in data set [5] (500 μM) came out at 112%.

For the compound `CCCCCCCC(O)CO` (stereo not shown) [1,2-nonediol, 1,2-nonanediol], in data set [2], the “Maximum solubility in water” value is 0.1 % by weight. The “antioxidative boosting (prolonged induction time, less rancidity and reduced acid value), in words” value in data set [1] was “distinguished efficacy for antioxidative boosting”.

As for `CCCCC(O)C(C)O` (stereo not shown) [2,3-heptanediol], in data set [2], the “Maximum solubility in water” value is on record as 3.6 % by weight. For the same compound, the “induction period, in words” value in data set [1] (setting [6]) and in data set [1] (setting [7]) was “remarkably prolonged induction periods” in each case. In data set [4], the “antioxidative efficacy, in words” value is recorded as “do not have an antioxidative efficacy”.

As for `CCCC(O)C(C)O` (stereo not shown) [2,3-hexanediol], the “induction period, in words” value in data set [1] (sunflower oil, tocopherol series (samples 1-43), versus comparative samples of the series) is “prolonged induction periods”.

As to `CCCCCCC(O)C(C)O` (stereo not shown) [2,3-nonanediol], the “Maximum solubility in water” value in data set [2] amounted to 0.3 % by weight.

For the compound `CCCCCC(O)C(C)O` (stereo not shown) [2,3-octanediol], the “Maximum solubility in water” value in data set [2] amounted to 1.5 % by weight. Also, the “antioxidative boosting (prolonged induction time, less rancidity and reduced acid value), in words” value in data set [1] is “distinguished efficacy for antioxidative boosting”. The “Mean, ROS concentration (%)” value in data set [5] (500 μM) was 98%.

In the case of `NCCC(=O)N[C@@H](Cc1cnc[nH]1)C(=O)O` [Carnosine], the “Mean, ROS concentration (%)” value in data set [5] (10 mM) worked out at 96%.

As to `CCCCC(O)CO` (stereo not shown) [Hydrolite ® 6], the “Maximum solubility in water” value in data set [2] came out at 50 % by weight.

For the compound `CCCCCCC(O)CO` (stereo not shown) [Hydrolite ® 8], in data set [2], the “Maximum solubility in water” value was 0.5 % by weight.

On to `CC1=C(/C=C/C(C)=C/C=C/C(C)=C/C(=O)OCC(=O)C(C)(C)C)C(C)(C)CCC1` [Hydroxypinacolone Retinoate], for which the “Mean, ROS concentration (%)” value in data set [5] (5 μM + 500 μM) turned out to be 53%.

As to `CC1=C(/C=C/C(C)=C/C=C/C(C)=C/CO)C(C)(C)CCC1` [all trans-Retinol, reference compound], the “IL-8 concentration” value in data set [3] (50 μM) is 670.8 pg/mL and 670.84 pg/mL. Moreover, in data set [5] (50 μM), the “Mean, ROS concentration (%)” value came out at 100%.

As to `Cc1c(C)c2c(c(C)c1O)CC[C@@](C)(CCC[C@H](C)CCC[C@H](C)CCCC(C)C)O2` [alpha-Tocopherol], the “Mean, ROS concentration (%)” value is given as 45% in data set [5] (50 μM) and 58% in data set [5] (100 μM).

Turning to `N=C(N)NCCC[C@H](NC(=O)C[C@H](N)C(=O)O)C(=O)O` [beta-aspartyl arginine], the “Mean, ROS concentration (%)” value in data set [5] (10000 μM) was 103%.
